# Data published in patent publication US11161871B2, “Crystalline form of obeticholic acid and preparation method therefor” (Jiangsu Hengrui Medicine Co., Ltd., priority 2016, dated 2021).
# Tests used:
# [1] = Stability under placement condition (30° C., RH 65%), HPLC purity and X-ray powder diffraction; type: physicochemical; conditions: for Crystal form (X-ray powder diffraction) / Purity determined by HPLC: 30° C.
# Method: Samplings were carried out on Day 5, Day 10, and Day 30.
# [2] = Special stability study: grinding, heating, tableting (crystal form, DSC); type: physicochemical
# [3] = Stability of crystal form E spread flat in the air under lighting, heating and high humidity, purity by HPLC; type: physicochemical; conditions: for Purity detected by HPLC, 40° C.: heating 40° C.; for Purity detected by HPLC, 60° C.: heating 60° C.; for Purity detected by HPLC, RH 75%: high humidity RH 75%; for Purity detected by HPLC, RH 90%: high humidity RH 90%; for Purity detected by HPLC, Lighting: lighting 4500 Lux
# Method: Samplings were carried out on Day 5 and Day 10.
# [4] = Drying at 80° C. of crystal product crystallized with butyl acetate; type: physicochemical; conditions: crystal product from butyl acetate dried at 80° C.
# [5] = placebo-controlled phase III clinical trial; cited from earlier work
smiles,measurement,setting,value
"CC[C@H]1[C@@H](O)[C@@H]2[C@H](CC[C@]3(C)[C@@H]([C@H](C)CCC(=O)O)CC[C@@H]23)[C@@]2(C)CC[C@@H](O)C[C@@H]12 [Crystal form E, obeticholic acid]",Crystal form (X-ray powder diffraction),[1]; Day 0,Crystal form E
same,Purity determined by HPLC,[1]; Day 0,99.75%
same,Crystal form (X-ray powder diffraction),[1]; Day 5,Crystal form E
same,Purity determined by HPLC,[1]; Day 5,99.72%
same,Crystal form (X-ray powder diffraction),[1]; Day 10,Crystal form E
same,Purity determined by HPLC,[1]; Day 10,99.73%
same,Crystal form (X-ray powder diffraction),[1]; Day 30,Crystal form E
same,Purity determined by HPLC,[1]; Day 30,99.70%
same,Stability (in words),"[1]; placement condition 30° C., up to Day 30",stable under the placement condition
same,DSC peak,[2]; after grinding treatment for 10 minutes in a mortar under nitrogen,94.3 °C
same,DSC peak,[2]; after heating treatment for 3 hours at 80° C.,94.5 °C
same,DSC peak,[2]; after tableting treatment,94.6 °C
same,Stability of the crystal form (in words),"[2]; ground, heated or tableted (grinding, pressure and heating)",the crystal form was stable
same,"Purity detected by HPLC, 40° C.",[3]; day 0,99.7%
same,"Purity detected by HPLC, 40° C.",[3]; day 5,99.6%
same,"Purity detected by HPLC, 40° C.",[3]; day 10,99.5%
same,"Purity detected by HPLC, 60° C.",[3]; day 0,99.7%
same,"Purity detected by HPLC, 60° C.",[3]; day 5,99.4%
same,"Purity detected by HPLC, 60° C.",[3]; day 10,99.1%
same,"Purity detected by HPLC, RH 75%",[3]; day 0,99.7%
same,"Purity detected by HPLC, RH 75%",[3]; day 5,99.7%
same,"Purity detected by HPLC, RH 75%",[3]; day 10,99.7%
same,"Purity detected by HPLC, RH 90%",[3]; day 0,99.7%
same,"Purity detected by HPLC, RH 90%",[3]; day 5,99.6%
same,"Purity detected by HPLC, RH 90%",[3]; day 10,99.5%
same,"Purity detected by HPLC, Lighting",[3]; day 0,99.7%
same,"Purity detected by HPLC, Lighting",[3]; day 5,99.6%
same,"Purity detected by HPLC, Lighting",[3]; day 10,99.6%
same,Stability (in words),"[3]; lighting, high temperature and high humidity (summary statement)",stable
same,Stability (in words),"[3]; spread flat in the air, high temperature",slightly degraded
same,Stability (in words),"[3]; spread flat in the air, lighting/high humidity",good stability
CC[C@H]1[C@@H](O)[C@@H]2[C@H](CC[C@]3(C)[C@@H]([C@H](C)CCC(=O)O)CC[C@@H]23)[C@@]2(C)CC[C@@H](O)C[C@@H]12 [obeticholic acid],"Thermal stability on drying (colour change, degradation)",[4],unstable at 80 °C and has undergone degradation
same,Biomarkers associated with reduced risk of liver transplantation,[5],increases the level of two biomarkers associated with reduced risk of liver transplantation
